# Experimental data: patent publication US8450317B2, “CXCR3 receptor antagonists” (Boehringer Ingelheim International GmbH, priority 2009, dated 2013)
# Target: CXCR3 (Macaca fascicularis, UniProt A0A2K5UV19)
# Test: functional cellular assay measuring calcium flux in CXCR3 transfected cells (block of CXCR3/IP-10 interaction)
# Type: cell-based, Cyno
# Details: IP-10 induced intracellular calcium flux; Cyno-CHO cells stably expressing recombinant CXCR3 and G-alpha-16; IP-10 at EC80; read-out: IC50
# In short: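 Inhibition of IP-10-induced calcium flux at 10 microM final compound, 15 min room-temperature preincubation, with IP-10 at EC80. Cells: CHO stably transfected with cynomolgus CXCR3 plus G-alpha-16, dye-loaded (Ca-4, 2 mM probenecid, HBSS/HEPES pH 7.4) 1 h at 37° C.; fluorescence ex 480/em 540 nm.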
# CXCR3, sequence (A0A2K5UV19 entry or part of it): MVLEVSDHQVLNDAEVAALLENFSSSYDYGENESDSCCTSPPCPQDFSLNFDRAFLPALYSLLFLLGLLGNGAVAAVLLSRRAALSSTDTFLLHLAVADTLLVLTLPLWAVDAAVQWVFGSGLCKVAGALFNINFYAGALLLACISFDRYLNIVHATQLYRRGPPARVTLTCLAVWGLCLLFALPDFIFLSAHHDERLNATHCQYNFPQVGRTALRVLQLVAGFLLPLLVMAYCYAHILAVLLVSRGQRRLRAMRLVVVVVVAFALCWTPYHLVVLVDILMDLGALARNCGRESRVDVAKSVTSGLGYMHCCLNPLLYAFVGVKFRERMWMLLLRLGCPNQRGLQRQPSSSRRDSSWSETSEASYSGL
row,SMILES,IC50
1,"O=C(Cn1ccc2cccnc21)N1CCN(c2ccccc2-c2ccnc(N3CCOCC3)c2)CC1 [1-{4-[2-(2-Morpholin-4-yl-pyridin-4-yl)-phenyl]-piperazin-1-yl}-2-pyrrolo[2,3-b]pyridin-1-yl-ethanone]",16 nM
2,"O=C(Cn1ccc2cccnc21)N1CCN(c2ccc(C(F)(F)F)cc2-c2cnc(N3CCOCC3)nc2)CC1 [1-{4-[2-(2-Morpholin-4-yl-pyrimidin-5-yl)-4-trifluoromethyl-phenyl]-piperazin-1-yl}-2-pyrrolo[2,3-b]pyridin-1-yl-ethanone]",15 nM
3,"O=C(Cn1ccc2cccnc21)N1CC=C(c2ccccc2-c2cnc(N3CCOCC3)nc2)CC1 [1-{4-[2-(2-Morpholin-4-yl-pyrimidin-5-yl)-phenyl]-3,6-dihydro-2H-pyridin-1-yl}-2-pyrrolo[2,3-b]pyridin-1-yl-ethanone]",20 nM
4,O=C(CNc1ccncc1)N1CCN(c2ccccc2-c2cnc(N3CCOCC3)nc2)CC1 [1-{4-[2-(2-Morpholin-4-yl-pyrimidin-5-yl)-phenyl]-piperazin-1-yl}-2-(pyridin-4-ylamino)-ethanone],27 nM
5,O=C(CNc1nccs1)N1CCN(c2ccccc2-c2cnc(N3CCOCC3)nc2)CC1 [1-{4-[2-(2-Morpholin-4-yl-pyrimidin-5-yl)-phenyl]-piperazin-1-yl}-2-(thiazol-2-ylamino)-ethanone],35 nM
6,"O=C(Cn1ccc2cccnc21)N1CCC(c2ccccc2-c2cnc(N3CCOCC3)nc2)CC1 [1-{4-[2-(2-Morpholin-4-yl-pyrimidin-5-yl)-phenyl]-piperidin-1-yl}-2-pyrrolo[2,3-b]pyridin-1-yl-ethanone]",11 nM
7,"O=C(Cn1ccc2cccnc21)N1CCN(c2ccccc2-c2cnc(N3CCCCC3)nc2)CC1 [1-{4-[2-(2-Piperidin-1-yl-pyrimidin-5-yl)-phenyl]-piperazin-1-yl}-2-pyrrolo[2,3-b]pyridin-1-yl-ethanone]",11 nM

# Molecules with a lower IC50, results first:
row,IC50,SMILES
1,9 nM,"COc1ncc(-c2ccccc2N2CCN(C(=O)Cn3ccc4ccncc43)CC2)cn1 [1-{4-[2-(2-Methoxy-pyrimidin-5-yl)-phenyl]-piperazin-1-yl}-2-pyrrolo[2,3-c]pyridin-1-yl-ethanone]"
2,9 nM,"CSc1ncc(-c2cc(C(F)(F)F)ccc2N2CCN(C(=O)Cn3ccc4cccnc43)CC2)cn1 [1-{4-[2-(2-Methylsulfanyl-pyrimidin-5-yl)-4-trifluoromethyl-phenyl]-piperazin-1-yl}-2-pyrrolo[2,3-b]pyridin-1-yl-ethanone]"
3,9 nM,"O=C(Cn1ccc2cccnc21)N1CCN(c2ccccc2-c2cnc(N3CCCC3)nc2)CC1 [1-{4-[2-(2-Pyrrolidin-1-yl-pyrimidin-5-yl)-phenyl]-piperazin-1-yl}-2-pyrrolo[2,3-b]pyridin-1-yl-ethanone]"
4,9 nM,"O=C(Cn1ccc2cccnc21)N1CCN(c2ccccc2-c2cnc(N3CCCOCC3)nc2)CC1 [1-{4-[2-(2-[1,4]Oxazepan-4-yl-pyrimidin-5-yl)-phenyl]-piperazin-1-yl}-2-pyrrolo[2,3-b]pyridin-1-yl-ethanone]"
5,7 nM,"CNc1ncc(-c2ccccc2N2CCN(C(=O)Cn3ccc4cccnc43)CC2)cn1 [1-{4-[2-(2-Methylamino-pyrimidin-5-yl)-phenyl]-piperazin-1-yl}-2-pyrrolo[2,3-b]pyridin-1-yl-ethanone]"
6,6 nM,"O=C(Cn1ccc2cccnc21)N1CCN(c2ccccc2-c2cnc(N3CCOCC3)nc2)CC1 [1-{4-[2-(2-Morpholin-4-yl-pyrimidin-5-yl)-phenyl]-piperazin-1-yl}-2-pyrrolo[2,3-b]pyridin-1-yl-ethanone]"
7,5 nM,"CNc1ncc(-c2cc(C(F)(F)F)ccc2N2CCN(C(=O)Cn3ccc4cccnc43)CC2)cn1 [1-{4-[2-(2-Methylamino-pyrimidin-5-yl)-4-trifluoromethyl-phenyl]-piperazin-1-yl}-2-pyrrolo[2,3-b]pyridin-1-yl-ethanone]"
8,4 nM,"CSc1ncc(-c2ccccc2N2CCN(C(=O)Cn3ccc4cccnc43)CC2)cn1 [1-{4-[2-(2-Methylsulfanyl-pyrimidin-5-yl)-phenyl]-piperazin-1-yl}-2-pyrrolo[2,3-b]pyridin-1-yl-ethanone]"
